From patent publication US20070238745A1, “PI3K-Akt Pathway Inhibitors” (UNIVERSITY OF SOUTH FLORIDA, priority 2006, published 2007)
Entries after “also recorded” stand apart in the source; their conditions may differ. Like-named read-outs stand apart in the source and are kept apart here.

Experiments:
LNCaP cells [1] = test: PARP cleavage by Western blotting in LNCaP cells; format: cell-based, human
Method: Cell lysates were analysed for PARP cleavage by Western blotting. […] Lysates were analysed by Western blotting. […] Lysates were analysed by Western blotting. In FIG. 1D LNCaP cells were transfected with pcDNA3 (vector) or pcDNA3 encoding dn-AKT plasmid. […] Lysates were analysed by Western blotting.
(§1) Prostate cancer cell lines used in our studies include LNCaP, LNCaP-Rf, PC3 and PC3-MM2. […] LNCaP cells and PC3 cells were derived from a lymph node metastasis and a bone metastasis, respectively, of human prostate tumors. All these cell lines express constitutively active AKT. To distinguish the effects of our therapeutics between normal and tumor cells, we also used an immortalized but non-tumorigenic prostate epithelial cell line, RWPE, in our study. All experiments were performed on growing cells in medium containing 10% fetal calf serum.
Apoptosis was monitored by cleavage of the caspase-3 substrate poly (ADP-ribose) polymerase (PARP).

PC3 cells [2] = test: Cell growth by trypan-blue exclusion, PC3; format: cell-based, human; settings: 72 hr
Method: (§2) FIG. 3 is a series of graphs illustrating the effects of drugs on growth potential of prostate cancer cells. Cells were treated with various inhibitors for 72 hrs and cell growth was enumerated by trypan-blue exclusion.
as §1
(§3) Further, effects of the combination treatment in altering colony formation potential were examined. For this purpose, cells were exposed to drugs for 24 or 46 hrs and trypsinized. Ten thousand viable cells were replated and allowed to grow colonies for 2 weeks.

PC3-MM2 cells = test: Cell growth by trypan-blue exclusion, PC3-MM2; format: cell-based, human; settings: 72 hr
Method: as §2, §1, §3

PC3 cells [3] = test: Apoptosis of PC3 cells (DNA fragmentation Cell Death ELISA, Tunel); format: cell-based, human; settings: 20 mM LY, 20 mM API-2, 50 mM roscovitine or combination for 14 hr (ELISA); 40 hrs (Tunel)
Method: Tunel positive cells are shown. […] Cells were incubated with Hoechest stain for 5 mins and examined using a fluorescent microscope. […] Amounts of cytosolic histone associated DNA fragments were measured.
as §1

Bim [4] = test: Amounts of Bim in LNCaP and PC3 cells; format: cell-based, human
Text: How AKT inhibitors facilitate the mitochondria-dependent apoptosis of prostate cancer cells remains to be determined. Potential mechanisms include accumulation of the BH3-only protein Bim and dephosphorylation and activation of Bad. The FOXO factors activate the Bim promoter, and AKT phosphorylates Bim, which may prevent its degradation.

LNCaP, LAPC4 and LAPC9 = settings: most prostate cancer cell lines, including LNCaP; cited from earlier work
[5] = cited from earlier work
[6] = system: malignant tumors refractory to conventional treatments; settings: patients with malignant tumors refractory to conventional treatments; cited from earlier work
[7] = system: lung, breast, and B cell cancer; settings: cited from earlier work
151 kinases = settings: cited from earlier work
LNCaP cells [8] = settings: cited from earlier work
Bim [9] = settings: PC3 cells, 8 hrs; roscovitine in either the presence or absence of API-2
Method: (§4) Lysates were analysed by Western blotting. […] Lysates were analysed by Western blotting.

XIAP [10] = settings: PC3 cells, longer exposure (20 hrs), single agent
Method: as §4

[11] = cited from earlier work; remark: listed apart in the source
[12] = orally, 3 times a day at 200 mg/kg or 2 times a day at 500 mg/kg; cited from earlier work
LNCaP, LNCaP-Rf = settings: LNCaP-Rf prostate cancer cells, roscovitine alone; cited from earlier work
PC3 and DU145 cells = settings: cited from earlier work
[13] = system: melanoma cells expressing wild-type p53 (A375, 888-Mel, 624-Mel); settings: melanoma cells A375, 888-Mel, 624-Mel (wild-type p53); cited from earlier work
[14] = system: HTLV-I transformed T cell lines (MT-2); settings: cited from earlier work
XIAP [15] = settings: LNCaP, LNCaP-Rf, and PC3 cells; cited from earlier work
p53 = settings: LNCaP and LNCaP-Rf cells; cited from earlier work
Bcl-2 = test: Western blotting: Bcl-2 expression in PC3 cells; settings: longer exposure (20 hrs)
Method: (§5) Lysates were analysed by Western blotting. […] Cells were exposed to drugs for 20 hrs. Lysates were analysed by Western blotting.

Cdk7/Cdk9 = test: Western blotting: phosphorylation of RNA-Pol II in PC3 cells; settings: short-term exposure (8 hrs)
Method: as §5

O=c1cc(N2CCOCC2)oc2c(-c3ccccc3)cccc12 [LY, 2-(4-morpholinyl)-8-phenyl-4H-1-benzopyran-4-one]
PARP cleavage (LNCaP cells [1]; LNCaP cells, 8 hours, cleavage of caspase-3 substrate PARP, 10 uM LY294002 or 0.5 uM Wortmannin): did not induce any PARP cleavage | cell growth (PC3 cells [2]): inhibit cell growth | cell growth (PC3-MM2 cells): inhibit cell growth | apoptosis of PC3 cells (PC3 cells [3]): not | amounts of Bim (Bim [4]): increase amounts of Bim | apoptotic response (LNCaP, LAPC4 and LAPC9): induce a potent apoptotic response | in vivo half-life [5]: short in vivo half-life

CC[C@H](CO)Nc1nc(NCc2ccccc2)c2ncn(C(C)C)c2n1 [R-roscovitine, 2-(1-R-hydroxymethylpropylamino)-6-benzylamino-9-iso-propylpurine]
toxicity, Phase I trial [6]: toxicity at higher doses | tumor responses, Phase I trial [6]: no objective tumor responses | responses, Phase II clinical trials [7]: partial responses lasting more than four months | toxicity, Phase II clinical trials [7]: limited toxicity | binding among 151 kinases examined (151 kinases): bound only its known CDK targets and pyridoxal kinase

Cc1ccc(C(=O)Cn2c3c(sc2=N)CCCC3)cc1 [pifithrin-α]
rescue from roscovitine-induced apoptosis (LNCaP cells [8]): rescues LNCaP cells

CCC(CO)Nc1nc(NCc2ccccc2)c2ncn(C(C)C)c2n1 (stereo not shown) [roscovitine, 2-(1-ethyl-2-hydroxyethylamino)-6-benzylamino-9-isopropylpurine]
PARP cleavage (LNCaP cells [1]): did not induce any PARP cleavage | PARP cleavage in the presence as compared with the absence of dominant-negative AKT (LNCaP cells [1]): enhanced PARP cleavage | exposure time at which robust PARP cleavage was evident (LNCaP cells [1]): more than 9 hr | cell growth (PC3 cells [2]): inhibit cell growth | cell growth (PC3-MM2 cells): inhibit cell growth | apoptosis of PC3 cells (PC3 cells [3]): not | Bim abundance (Bim [9]): did not alter Bim abundance | XIAP expression / abundance (XIAP [10]): reduced expression of XIAP | tissue distribution / tumor uptake ([11]; in vivo): highest tumor uptake | clearance from plasma ([11]; via oxidative metabolism of the side chain hydroxyl group, excreted in urine): clears slowly | toxicity or adverse effects [12]: without any toxicity or adverse effects | apoptosis (LNCaP, LNCaP-Rf): can induce apoptosis; also recorded: readily induces apoptosis | apoptosis when supplied with roscovitine and wild-type p53 (PC3 and DU145 cells; DU145 and PC3 cells): efficiently apoptose | apoptosis (PC3 and DU145 cells): relatively resistant and not | apoptosis [13]: apoptose; also recorded: readily induces apoptosis | apoptosis [14]: readily induces apoptosis | XIAP expression (XIAP [15]): reduces XIAP expression | p53 abundance (p53): increases p53 abundance | Bcl-2 expression (Bcl-2): not | activity of Cdk7/Cdk9 as measured by phosphorylation of RNA-Pol II (Cdk7/Cdk9): reduced activity

COC[C@H]1OC(=O)c2coc3c2[C@@]1(C)C1=C(C3=O)[C@@H]2CCC(=O)[C@@]2(C)C[C@H]1OC(C)=O [wortmannin]
in vivo half-life [5]: short in vivo half-life
